Reference: patent publication US20140155445A1, “Compounds and Methods for Treating Cancer and Diseases of the Central Nervous System” (Osta Biotechnologies Inc., priority 2007, published 2014)
Entries after “also recorded” stand apart in the source; their conditions may differ.

Experiments:
[1] = system: human pancreatic tumor cells; experiment: Cell proliferation, [3H]thymidine incorporation, human pancreatic tumor cells; assay type: cell-based; conditions: 6.5 μM, 18 h
[2] = system: hHO-1 transfected primary rat astroglial cultures; experiment: Protein carbonyl ELISA in hHO-1-transfected primary rat astroglia (whole-cell and mitochondrial compartments); assay type: cell-based
Experimental: Cells were grown in Ham's F12 and high glucose DMEM (50:50 v/v) supplemented with 10 mM HEPES, 5% heat-inactivated horse serum, 5% heat-inactivated fetal bovine serum, and penicillin-streptomycin (50 U/mL and 50 μg/mL, respectively).
Upon reaching >90% confluence, 1×10^6 cells were transiently transfected with 4.0 μg of plasmid DNA-Lipofectamine 2000 complex using Lipofectamine 2000 method according to manufacturer instructions (Invitrogen). […] 12 μg of plasmid DNA and 16 μl of Lipofectamine 2000 reagent were diluted in 1.5 mL opti-MEM I reduced serum medium and incubated for 5 minutes at room temperature with gentle mixing. The two solutions were combined, incubated at room temperature for 20 minutes to promote formation of DNA-lipid complexes and administered to the cells. 2 mL opti-MEM I reduced serum medium was added to the flasks to ensure coverage of the monolayer by the transfection mixture. Following incubation for 6 hours at 37° C., the transfection mixture was replaced with 10 mL of complete media without antibiotics.
The cells were sonicated (Sonics & Materials, Danbury, Conn.) at a power level of 50 for 3×20 s in a cooled water bath. […] Whole-cell and mitochondrial preparations were assayed for protein carbonyls as described below.
Protein carbonyls were reacted with 2,4-dinitrophenylhydrazine (DNP) and the hydrazone adducts were detected with anti-DNP antisera. Quantification was achieved by comparison with oxidized BSA standards. Oxidized (carbonylated) BSA was prepared by reacting natural BSA (at 50 mg/mL in PBS) with hypochlorous acid (5 mM) for 1 h at 37° C., followed by overnight dialysis against PBS at 4° C. […] The pellet was resuspended in 2 mL of same buffer, sonicated on ice 2×15 s at 20 W and centrifuged for 20 min at 4° C. at 1,303×g. Protein concentration of supernatant was measured with the RC DC protein assay based on the Lowry protocol (Bio-Rad Laboratories, Hercules, Calif.). All samples were adjusted to 4.0 mg protein/mL. […] Five microliters aliquots of each reaction mixture were mixed with 1 mL PBS and 200 μL replicates were added per well to 96-well immunoplates and incubated overnight at 4° C. After washing with PBS, nonspecific binding sites were blocked with 0.1% Tween 20 in PBS. […] A 6-point standard curve of reduced and oxidized BSA was generated for each plate analyzed. Specific absorbance for each sample was calculated by subtracting basal absorbance of the DNP reagent from the total absorbance.

[3] = system: human metastatic prostate cancer PC-3M cells; experiment: Orthotopic PC-3M prostate cancer model in SCID mice; assay type: in vivo
Excerpt: PC-3 & PC-3M (human prostate carcinoma). The PC-3 human prostate cancer cell line was originally obtained from the American Type Culture Collection (Rockville, Md.). The PC-3M cell line was kindly provided by Dr. Issac (MD Anderson Cancer Center). This cell variant was derived from a liver metastasis produced by the parental PC-3 cells growing in the spleen of a nude mouse [Pettaway C A, Pathak S, Greene G, et al. Selection of highly metastatic variants of different human prostate carcinomas utilizing orthotopic implantation in nude mice.
Male SCID mice were housed in laminar flow under specific pathogen-free conditions and used at 8-9 weeks of age. Animals were maintained in the LDI facilities approved by the Laboratory Animal Care in accordance with current Canadian regulations and standards for the use of animals for research.
Mice were anesthesized with isofluorane given by inhalation and placed in a supine position. […] A low midline incision was made and the prostate was exposed. Fifty microliters of HBSS containing 1×10^6 cells was injected into a lateral lobe of the prostate. The wound was closed with surgical metal clips in two layers, the muscle layer first and then the skin layer using stainless steel clips (autoclips: 9 mm; Clay Adams Inc., Parsippany, N.J.). […] Control groups received the vehicle alone. Taxol™ was given either ip or iv as indicated.
Primary tumors in the prostate were excised, measured, and weighed. When applicable, immunohistochemistry and H&E staining were conducted on one part of the tumor, fixed in formalin and embedded in paraffin or OCT compound (Miles Inc., Elkhart, Ind.); the later was rapidly frozen in liquid nitrogen, and stored at −70° C. Macroscopically enlarged regional lymph nodes were harvested and the presence of metastatic disease was confirmed by histology.
The in vivo data was analyzed using the Mann-Whitney U test.

[4] = Pharmacokinetic evaluation of QC-199 in mouse plasma, IV infusion; assay type: in vivo
Experimental: Regular male CD1 mice, 6 weeks old, were obtained from Charles River Laboratories, St. Zotique, PQ, Canada. The mice weighed 22-28 g. The experiments were approved by the Animal Care Committee, McGill University, Montreal, Quebec. The animals were housed in individual cages and were fed standard rodent chow and water ad libitum. Mice weights were measured with a digital balance accurate to 0.05 g and then received QC-199 at the indicated doses either orally, or via i.p. injections or following i.v. slow infusion. In the case of i.v. injection or i.v. infusion, mice were anesthetized using isoflurane-based system (DISPOMED, MODUFLEX COMPACT NRB, 3975-0800-000). For the infusion, a mini pump (NE-1800, New Era Pump Systems, Inc.) was used to infuse the compound via the tail vein during a 2 h period. In one study, blood and brain tissue samples were collected at various time points after administration of QC-199 using EDTA tubing (Das Original S-Monovette EDTA KE/1.2 ml lot.9094102 and Needle for S-Monovette 22G lot. 8073401) via cardiac puncture and immediately stored at 4° C. Serum was collected after the samples were centrifuged 2200×, 4° C. for 20 minutes and stored at −80° C. until analysis. For the brain tissue collection, skin of mice was removed and brain was carefully dissected out from the skull, transferred into a Petri dish, briefly washed with ice-cold phosphate-buffered saline (PBS), and immediately stored at −80° C. until further analysis.
The assay of QC-199 in mouse plasma and brain samples was carried out using qualified LC/MS/MS assay methods.

[5] = QC-56 30 mg/kg intraperitoneally daily for 12 days, Taxol 10 mg/kg i.p. 3 cycles
[6] = QC-56 30 mg/kg intravenously daily for 12 days, Taxol 10 mg/kg i.p. 3 cycles
[7] = male, CD-1, mouse, in vivo, IV infusion

Brc1ccc(CCC2(Cn3ccnc3)OCCO2)cc1.Cl [QC-56, 1-((2-(2-(4-Bromophenyl)ethyl)-1,3-dioxolan-2-yl)methyl)-1H-imidazole hydrochloride]
effect of hHO-1 transfection on 3H-thymidine incorporation ([1]; hHO-1-transfected human pancreatic tumor cells): significantly attenuated | 3H-thymidine incorporation vs untreated cells ([1]; non-transfected human pancreatic tumor cells, hydrochloride): significantly attenuated; also recorded: marked reduction | oxidative protein damage (protein carbonyls) accruing from hHO-1 transfection ([2]; 6.5 μM): significantly attenuated | dose dependence of attenuation of oxidative protein damage ([2]; transiently transfected rat astroglia, hydrochloride): significant dose dependant attenuations; also recorded: in a dose dependent manner significantly decreased; also recorded: significant dose-dependant attenuations | inhibition of tumor growth [3, 5]: 34% | reduction in microscopic lymph node metastases [3, 5]: 59% | inhibition of tumor growth [3, 6]: 58% | reduction in microscopic lymph node metastases [3, 6]: 76% | reduction in microscopic lymph node metastases ([3]; QC-56 40 mg/kg daily for 24 days, Taxol 10 mg/kg, 4 cycles): 48% | inhibition of tumor growth compared to untreated mice ([3]; QC-56 40 mg/kg daily for 24 days, Taxol 10 mg/kg, 4 cycles, 3 administrations per cycle): 35%

Brc1ccc(CCCCn2ccnc2)cc1.Cl [QC-199, 1-[4-(4-bromophenyl)butyl]-1H-imidazole hydrochloride]
AUC_%Extrap_obs ([4]; IV infusion): 37% | AUC(0-inf) [4, 7]: 224 µg·h/mL | Tmax [4, 7]: 3 h | half-life ([4]; male, CD-1, mouse, in vivo, IV infusion, from Lambda z, read-out: T½ (converted)): 18 h | AUC ([4]; male, CD-1, mouse, in vivo, IV infusion, read-out: AUCall (0-24 h)): 141 µg·h/mL | Cmax ([4]; mouse, 90 min IV infusion, male CD-1 mice): 8000 ng/mL
